Data as given in patent US20220274947A1, “NOVEL HETEROARYL-TRIAZOLE COMPOUNDS AS PESTICIDES” (Bayer Aktiengesellschaft, priority 2019, published 2022).

Tests used:
Type in all cases: in vivo
[1] = tested on: Aedes aegypti strain MONHEIM; test: Aedes aegypti test (AEDSAE surface treatment & contact assay); conditions: exposure 30 minutes, 24 hours after contact, read-out: efficacy (mortality); for mortality at 4 mg/m2: surface concentration 4 mg/m^2, glazed tile; for mortality at 20 mg/m2: surface concentration 20 mg/m^2, glazed tile
How it was run: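 Compound dissolved in acetone (2 mg/ml) with 2000 ppm rapeseed oil methyl ester, pipetted onto glazed tile and dried. Adult mosquitoes exposed on the surface for 30 min; percent mortality scored 24 h after contact.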

[2] = tested on: Myzus persicae; test: Myzus persicae oral test; conditions: 120 h, read-out: activity (mortality)
How it was run: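 Percent mortality was recorded at day 5, where 0% means no aphids killed. Compound prepared from an acetone concentrate diluted in water and combined with IPL41 medium containing sugar was offered to mixed-stage green peach aphids, which sucked it through a parafilm seal.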

[3] = tested on: Myzus persicae; test: Myzus persicae spray test; conditions: in Brassica rapa, foliar, 120 h, read-out: activity (mortality), application rate 100 g/ha, spray, Chinese cabbage leaf disks, after 5 days
How it was run: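 Compound in acetone/DMF solvent diluted in water with 1000 ppm alkylarylpolyglycol ether emulsifier, sprayed onto Chinese cabbage leaf disks infested with all instars of Myzus persicae. Mortality (%) scored after 5 days.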

[4] = tested on: Blattella germanica strain PAULINIA; test: Blattella germanica test (BLTTGE surface treatment & contact assay); conditions: exposure 30 minutes, 24 hours after contact, read-out: efficacy (mortality); for mortality at 20 mg/m2: surface concentration 20 mg/m^2, glazed tile; for mortality at 4 mg/m2: surface concentration 4 mg/m^2, glazed tile
Method: Blattella germanica Test (BLTTGE Surface Treatment & Contact Assay) Solvent: Aceton+2000 ppm rapeseed oil methyl ester (RME)
In order to produce a sufficient, active ingredient containing solution it is necessary to solve the test compound in the solvent-mix (acetone at 2 mg/ml/RME 2000 ppm). This solution is pipetted onto a glazed tile and after evaporation of the acetone, adult animals of the species Blattella germanica strain […] are placed onto the dried surface. The exposure time is 30 minutes. Mortality in percent (%) is determined 24 hours after contact of the insects to the treated surface. 100% mortality means that all tested insects are dead, whereas 0% means that no insect died.

[5] = tested on: Rhipicephalus sanguineus; test: Rhipicephalus sanguineus in-vitro contact test, adult brown dog ticks (RHIPSA Cont); conditions: 48 h, after 48 hours, read-out: activity (efficacy: 100% means all ticks are dead or moribund); for pest or weed control at 5 µg/cm2, 500 g/ha: application rate 5 μg/cm^2 (=500 g/ha); for pest or weed control at 1 µg/cm2, 100 g/ha: application rate 1 μg/cm^2 (=100 g/ha)
How it was run: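 Mortality of adult R. sanguineus was judged 48 h after contact with acetone-applied residues on glass tube walls. Ticks that stayed immotile or moved without coordination when heated to 45–50 °C (max 5 min) counted as dead or moribund.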

[6] = tested on: Musca domestica strain WHO—N; test: Musca domestica test (MUSCDO surface treatment & contact assay); conditions: exposure 30 minutes, 24 hours after contact, read-out: efficacy (mortality); for mortality at 4 mg/m2: surface concentration 4 mg/m^2, glazed tile; for mortality at 20 mg/m2: surface concentration 20 mg/m^2, glazed tile
How it was run: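 Compound dissolved in acetone (2 mg/ml) with 2000 ppm rapeseed oil methyl ester and pipetted onto glazed tile; after acetone evaporation, adult flies exposed to dried surface for 30 minutes. Mortality (%) scored 24 hours after contact.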

[7] = tested on: Anopheles funestus strain FUMOZ-R; test: Anopheles funestus test (ANPHFU surface treatment & contact assay); conditions: exposure 30 minutes, 24 hours after contact, read-out: efficacy (mortality); for mortality at 4 mg/m2: surface concentration 4 mg/m^2, glazed tile; for mortality at 20 mg/m2: surface concentration 20 mg/m^2, glazed tile
How it was run: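 Adult FUMOZ-R mosquitoes were exposed 30 min to glazed tiles treated with compound in acetone plus 2000 ppm rapeseed oil methyl ester, after solvent evaporation. Percent mortality was scored 24 h after contact.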

Compound | mortality at 4 mg/m2 [1] | mortality at 20 mg/m2 [1] | mortality at 0.8 ppm [2] | mortality at 4 ppm [2] | mortality at 100 g/ha [3] | mortality at 20 mg/m2 [4] | pest or weed control at 5 µg/cm2, 500 g/ha [5] | mortality at 4 mg/m2 [6] | mortality at 20 mg/m2 [6] | mortality at 4 mg/m2 [7] | mortality at 20 mg/m2 [7] | pest or weed control at 1 µg/cm2, 100 g/ha [5] | mortality at 4 mg/m2 [4]
C[C@H](NC(=O)c1cc(OC(F)F)cc(OC(F)F)c1)c1ncnn1-c1ccc(C#N)cn1 [II-77] | 80 to 100% | 80 to 100% | 90% | 100% | 90% | 80 to 100% | 100% | 80 to 100% | 80 to 100% | 80 to 100% | 80 to 100% |  | 
C[C@H](NC(=O)c1cc(Br)cc(C(F)F)c1)c1ncnn1-c1ccc(C#N)cn1 [II-83] | 80 to 100% | 80 to 100% |  | 100% | 90% | 80 to 100% | 100% | 80 to 100% | 80 to 100% | 80 to 100% | 80 to 100% | 100% | 
C[C@H](NC(=O)c1cc(C(F)F)cc(C(F)F)c1)c1ncnn1-c1ccc(C#N)cn1 [II-101] | 80 to 100% | 80 to 100% | 100% | 100% | 90% | 80 to 100% | 100% | 80 to 100% | 80 to 100% | 80 to 100% | 80 to 100% | 100% | 
C[C@H](NC(=O)c1cc(OC(F)(F)F)cc(C(F)F)c1)c1ncnn1-c1ccc(C#N)cn1 [II-111] | 80 to 100% |  | 90% | 100% |  | 80 to 100% | 100% |  | 80 to 100% |  |  | 100% | 80 to 100%
C[C@H](NC(=O)c1cc(OC(F)F)cc(C(F)F)c1)c1ncnn1-c1ccc(C#N)cn1 [II-116] | 80 to 100% | 80 to 100% | 100% | 100% | 90% | 80 to 100% | 100% | 80 to 100% | 80 to 100% |  | 80 to 100% | 100% | 80 to 100%
